Measured values taken from patent US7431088B2, “Methods of controlled acidization in a wellbore” (Halliburton Energy Services, Inc., priority 2006, dated 2008).
Structures can show the parent of a compound that is named as a salt.

What was measured:
[1] = for hydrolysis / reaction rate (comparison in words): deionized water, molar ratio of CaCO3
Protocol: In the following examples, various ester hydrolysis reactions were run in the presence of calcium carbonate (CaCO3) to simulate the consumption of filter cake material. The acid evolved in each reaction was measured per unit of time. The acid generated upon hydrolysis was rapidly consumed in a secondary reaction that produced carbon dioxide (CO2). The half-life was secured when half of the CaCO3 was consumed. That is, using PV=nRT, the amount of CaCO3 that would yield approximately 1 liter of CO2 was calculated to be about 4.47 grams. We doubled the amount of CaCO3 (8.94 grams) for the reactions and then calculated the half-life based on the yield of 1 liter of CO2. Unless otherwise specified, all half-life quotations are actually the time required for 4.47 grams of CaCO3 to be consumed.
The following general procedure was used in each of the examples. The closed system reactor shown in FIG. 1 was used to measure the amount of CO2 gas that evolved in each reaction. Water or brine was added to a boiling flask 10, which was heated to 100° C. […] Once the liquid was boiling, a weighed amount of ester was added to flask 10. The amount of ester employed was always in ratio to the water or to the make-up water used to formulate the brine except where commercially available brines were used. Following addition of the ester to the boiling liquid, a reflux condenser 12 was affixed to flask 10. The top of condenser 12 was fixed with an adapter 14 to an inlet tube 18 in a 2-hole rubber stopper 16. The inlet tube 18 was passed through stopper 16, providing a seal. An outlet tube 22 was run from the bottom of a flask 20 to a 1,000 mL graduated cylinder 24. The flask 20 was charged with XP-07 base oil, commercially available from Halliburton Energy Services, Inc. The outlet tube 22 served the purpose of discharging the oil into graduated cylinder 24. The hydrolysis reaction produced acid in flask 10 that reacted with the CaCO3 to produce CO2 gas. The gas displaced the oil in flask 20 into graduated cylinder 24. The rate of CO2 evolution thus could be monitored visually by reading of the amount of oil in graduated cylinder 24 per unit of time.
Solutions containing various esters of lactic acid and of glycerol (i.e., monoacetin, ethyl lactate, triacetin, tripropionin), butyl formate (a control), and BDF-325 diethyleneglycol diformate (a control) in neutral water were prepared and combined with a molar ratio of CaCO3. Hydrolysis reactions were then carried out using the resulting solutions at 100° C. The hydrolysis reactions were monitored, and the half-lives of the esters were compared. The volume of oil displaced by the CO2 gas is plotted as a function of time in FIG. 2. […] The butyl formate to CaCO3 molar ratio was doubled for comparison purposes.
Solutions containing 10 volume % monoacetin, diacetin, and triacetin in deionized water were prepared and combined with a molar ratio of CaCO3. Hydrolysis reactions were then carried out using the resulting solutions at 100° C. The hydrolysis reactions were monitored, and the half-lives of the esters were compared. The volume of oil displaced by the CO2 gas is plotted as a function of time in FIG. 3.

[2] = Solubility of ester in water; assay type: physicochemical

Row | SMILES | effect of doubling the ester to CaCO3 molar ratio on reaction rate [1] | hydrolysis / reaction rate (comparison in words) ([1]; 100° C.) | also measured
1 | CCCCOC(=O)C(C)O (stereo not drawn) [Butyl lactate] | doubled its reaction rate | faster than that of the butyl formate | –
2 | CC(=O)OCC(O)COC(C)=O [Diacetin] | – | very similar | –
3 | CCOC(=O)C(C)O (stereo not drawn) [Ethyl Lactate] | – | – | hydrolysis performance in different aqueous solutions ([1]; 10 volume % in deionized water and various brines, 100° C.): performed consistently
4 | CC(=O)OCC(O)CO (stereo not drawn) [Monoacetin] | – | – | half-life relative to target ([1]; buffer): within the targeted range
5 | CC(=O)OCC(COC(C)=O)OC(C)=O [Triacetin] | – | very similar | –
6 | CCCCOC=O [butyl formate, reference compound] | surprisingly similar | slow reaction rate | solubility in water [2]: relative insolubility
